# Data from patent US7250423B2, “Methods for synthesizing heterocycles and therapeutic use of the heterocycles for cancers” (priority 2001, dated 2007).
# Assays:
# Assay type in all cases: cell-based, human
# [1] = test system: NCI-H460 (Non Small Cell Lung); assay: 3-cell line, one dose primary anticancer assay (NCI); details: 1.000E−04 Molar, 48 hours, percent of growth vs untreated control cells; negative numbers indicate cell kill
# Procedure: (§1) The following cell culture tests were performed by the National Cancer Institute of the National Institute of Health. The compounds listed below have been evaluated in the 3-cell line, one dose primary anticancer assay. The compounds which pass our criteria for activity in this assay will be scheduled automatically for evaluation against the full panel of 60 tumor cell lines. For the past 10 years, the Development Therapeutic Program (DTP), Division of Cancer Treatment and Diagnosis (DCTD), National Cancer Institute (NCI) has used an in vitro model consisting of 60 human tumor cell lines as the primary anticancer screen [Ref: J. Natl, Cancer Inst., 83:757-766, 1991].
# (§2) 95% of the actives from the 60 cell line screen can be identified using only three cell lines. For this reason, the DTP has now begun using, as its primary anticancer assay, a 3-cell line panel consisting of the MCF7 (Breast), NCI-H460 (Lung), and SF-268 (CNS). This 3-cell line, one-dose assay has been in use by DTP for several years for the evaluation of combinatorial libraries and has proven to be an effective pre-screen.
# (§3) In the current protocol, each cell line is inoculated and preincubated on a microtiter plate. Test agents are then added at a single concentration and the culture incubated for 48 hours. End-point determinations are made with alamar blue (Biotechniques 21(5) 780-782 (1996)). Results for each test agent are reported as the percent of growth of the treated cells when compared to the untreated control cells. Compounds which reduce the growth of any one of the cell lines to approximately 32% or less (negative numbers indicate cell kill) are passed on for evaluation in the full panel of 60 cell lines over a 5-log dose range.
# MCF7 (Breast) = assay: as above; details: 1.000E−04 Molar, 48 hours, percent of growth vs untreated control cells; negative numbers indicate cell kill
# Procedure: as §1, §2, §3
# SF-268 (CNS) = assay: as above; details: 1.000E−04 Molar, 48 hours, percent of growth vs untreated control cells; negative numbers indicate cell kill
# Procedure: as §1, §2, §3
# PC-3 (prostate cancer) = assay: 60 cell-line tests
# Procedure: as §1, §3
# DU-145 (prostate cancer) = assay: 60 cell-line tests; details: even at 1.000E-08 molar concentration
# Procedure: as §1, §3
# other cell lines = assay: 60 cell-line tests; details: other cell lines of the 60 cell-line panel
# Procedure: as §1, §3
# [2] = test system: EKVX (non-small cell lung cancer); assay: 60 cell-line tests; details: even at 1.000E-08 molar concentration
# Procedure: as §1, §3
# SF-539 (CNS cancer) = assay: 60 cell-line tests; details: even at 1.000E-08 molar concentration
# Procedure: as §1, §3
# [3] = test system: MDA-MB-435 (breast cancer); assay: 60 cell-line tests; details: even at 1.000E-08 molar concentration
# Procedure: as §1, §3
# Delta cancer cell lines = assay: 60 cell-line tests
# Procedure: as §1, §3
# CAKI-1 (renal cancer) = assay: 60 cell-line tests
# Procedure: as §1, §3
# [4] = test system: CCRF-CEM (and other leukemia cancer cells); assay: 60 cell-line tests
# Procedure: as §1, §3
# HCT (colon cancer) = assay: 60 cell-line tests
# Procedure: as §1, §3
# [5] = test system: NCI-H522 (non-samll cell lung cancer); assay: 60 cell-line tests
# Procedure: as §1, §3
compound,measurement,setting,value
"6,6a,7,8-tetrahydro-7-(2-o-hydroxyphenyl)ethyl-2H-benzopyrano[3,2-a]quinoline [4-1]",Growth Percentage (Non Small Cell Lung) NCI-H460,[1],0%
same,Growth Percentage (Breast) MCF7,MCF7 (Breast),0%
same,Growth Percentage (CNS) SF-268,SF-268 (CNS),0%
"OCCCCC1Nc2ccc(Nc3ccccc3)cc2C2OCCCC12 (stereo not shown) [3-1, 3,4,4a,5,6,10b-hexahydro-5-(4-hydroxybutyl)-9-phenylamino-2H-pyrano[3,2-c]quinoline]",killing of cancer cells,PC-3 (prostate cancer); even at 1.000E-08 molar concentration,highly potent and selectively killed
same,killing of cancer cells,DU-145 (prostate cancer),highly potent and selectively killed
same,effect against other cell lines,other cell lines,very week effect
same,killing of cancer cells,[2],highly potent and selectively killed
same,killing of cancer cells,SF-539 (CNS cancer),highly potent and selectively killed
same,killing of cancer cells,[3],highly potent and selectively killed
same,killing of cancer cells,"Delta cancer cell lines; Delta cancer cell lines, even at 1.000E-08 molar concentration",highly potent and selectively killed
same,Growth Percentage (Non Small Cell Lung) NCI-H460,[1],−1%
same,Growth Percentage (Breast) MCF7,MCF7 (Breast),−1%
same,Growth Percentage (CNS) SF-268,SF-268 (CNS),−1%
"OCCCC1Nc2ccc(Nc3ccccc3)cc2C2OCCC12 (stereo not shown) [3-2, 2,3,3a,4,5,9b-hexahydro-4-(3-hydroxypropyl)-8-phenylamino-furano[3,2-c]quinoline]",Growth Percentage (Non Small Cell Lung) NCI-H460,[1],57%
same,Growth Percentage (Breast) MCF7,MCF7 (Breast),0%
same,Growth Percentage (CNS) SF-268,SF-268 (CNS),22%
"CN(C)c1ccc2c(c1)C1OCCC1C(CCCO)N2 (stereo not shown) [3-3, 2,3,3a,4,5,9b-hexahydro-4-(3-hydroxypropyl)-8-dimethylamino-furano[3,2-c]quinoline]",Growth Percentage (Non Small Cell Lung) NCI-H460,[1],100%
same,Growth Percentage (Breast) MCF7,MCF7 (Breast),7%
same,Growth Percentage (CNS) SF-268,SF-268 (CNS),77%
"OCCCCC1Nc2ccc(O)cc2C2OCCCC12 (stereo not shown) [5-1, 3,4,4a,5,6,10b-hexahydro-5-(4-hydroxybutyl)-9-hydroxy-2H-pyrano[3,2-c]quinoline]",selectivity for cancer cells,PC-3 (prostate cancer),highly selective
same,selectivity for cancer cells,CAKI-1 (renal cancer),moderately selective
same,selectivity for cancer cells,[4],moderately selective
same,selectivity for cancer cells,HCT (colon cancer),moderately selective
same,selectivity for cancer cells,Delta cancer cell lines; Delta cancer,highly selective
same,selectivity for cancer cells,[5],moderately selective
same,Growth Percentage (Non Small Cell Lung) NCI-H460,[1],29%
same,Growth Percentage (Breast) MCF7,MCF7 (Breast),0%
same,Growth Percentage (CNS) SF-268,SF-268 (CNS),2%
